# ChEMBL document CHEMBL3132815, “Design, synthesis and activities of 4/5-acyl-2-aminoimidazolyl analogues of oroidin for biofilm inhibition” (Medchemcomm, 2013)
# Key:
# [1] = Cytotoxicity against human HeLa cells; type: cell-based
# [2] = test system: Pseudomonas aeruginosa; assay: Antibiofilm activity against Pseudomonas aeruginosa PAO1 assessed as inhibition of biofilm formation; type: functional, organism-based
# [3] = test system: Pseudomonas aeruginosa; assay: Antibacterial activity against Pseudomonas aeruginosa PAO1 assessed as planktonic growth; type: organism-based
# [4] = test system: Staphylococcus aureus; assay: Antibacterial activity against Staphylococcus aureus ATCC 35556 assessed as planktonic growth; type: organism-based
# [5] = test system: Staphylococcus aureus; assay: Antibiofilm activity against Staphylococcus aureus ATCC 35556 assessed as inhibition of biofilm formation; type: functional
# [6] = test system: Staphylococcus epidermidis; assay: Antibiofilm activity against Staphylococcus epidermidis 1457 assessed as inhibition of biofilm formation; type: functional
# [7] = test system: Staphylococcus epidermidis; assay: Antibacterial activity against Staphylococcus epidermidis 1457 assessed as planktonic growth; type: organism-based
# [8] = test system: Staphylococcus epidermidis; assay: Antibiofilm activity against Staphylococcus epidermidis GTC 18972 assessed as inhibition of biofilm formation; type: functional
# [9] = test system: Pseudomonas aeruginosa; assay: Antibiofilm activity against Pseudomonas aeruginosa PAO1 assessed as inhibition of biofilm formation at 50 ug/ml; type: functional
# [10] = test system: Pseudomonas aeruginosa; assay: Antibacterial activity against Pseudomonas aeruginosa PAO1 assessed as planktonic growth at 50 ug/ml; type: organism-based
# [11] = test system: Staphylococcus aureus; assay: Antibiofilm activity against methicillin-resistant Staphylococcus aureus 1094 assessed as inhibition of biofilm formation at 50 ug/ml; type: functional
# [12] = test system: Staphylococcus aureus; assay: Antibacterial activity against methicillin-resistant Staphylococcus aureus 1094 assessed as planktonic growth at 50 ug/ml; type: organism-based
# [13] = test system: Staphylococcus aureus; assay: Antibiofilm activity against methicillin-resistant Staphylococcus aureus assessed as inhibition of biofilm formation at 50 ug/ml; type: functional
# [14] = test system: Staphylococcus aureus; assay: Antibacterial activity against methicillin-resistant Staphylococcus aureus assessed as planktonic growth at 50 ug/ml; type: organism-based; details: in vitro
# [15] = test system: Staphylococcus aureus; assay: Antibiofilm activity against Staphylococcus aureus ATCC 35556 assessed as inhibition of biofilm formation at 50 ug/ml; type: functional
# [16] = test system: Staphylococcus aureus; assay: Antibacterial activity against Staphylococcus aureus ATCC 35556 assessed as planktonic growth at 50 ug/ml; type: organism-based
# [17] = test system: Staphylococcus epidermidis; assay: Antibiofilm activity against Staphylococcus epidermidis 1457 assessed as inhibition of biofilm formation at 50 ug/ml; type: functional
# [18] = test system: Staphylococcus epidermidis; assay: Antibacterial activity against Staphylococcus epidermidis 1457 assessed as planktonic growth at 50 ug/ml; type: organism-based
# [19] = test system: Staphylococcus epidermidis; assay: Antibiofilm activity against Staphylococcus epidermidis GTC 18972 assessed as inhibition of biofilm formation at 50 ug/ml; type: functional
# [20] = test system: Staphylococcus epidermidis; assay: Antibacterial activity against Staphylococcus epidermidis GTC 18972 assessed as planktonic growth at 50 ug/ml; type: organism-based
# [21] = test system: Staphylococcus epidermidis; assay: Antibacterial activity against Staphylococcus epidermidis GTC 18972 assessed as planktonic growth; type: organism-based
# [22] = test system: Staphylococcus aureus; assay: Antibiofilm activity against methicillin-resistant Staphylococcus aureus 1094 assessed as inhibition of biofilm formation; type: functional
# [23] = test system: Staphylococcus aureus; assay: Antibiofilm activity against Staphylococcus aureus assessed as inhibition of biofilm formation; type: functional, organism-based
SMILES,CC50 [1] [µg/mL],MBIC [2],MIC [3],MIC [4] [µg/mL],MBIC [5] [µg/mL],MBIC [6] [µg/mL],MIC [7] [µg/mL],MBIC [8] [µg/mL],inhibition at 50 µg/mL [9] [%],Activity [10] [%],inhibition at 50 µg/mL [11] [%],Activity [12] [%],inhibition at 50 µg/mL [13] [%],Activity [14] [%],inhibition at 50 µg/mL [15] [%],Activity [16] [%],inhibition at 50 µg/mL [17] [%],Activity [18] [%],inhibition at 50 µg/mL [19] [%],Activity [20] [%],also measured
Nc1ncc(C(=O)CCNC(=O)c2cc(Br)c[nH]2)[nH]1,86.4,>=100 ug ml-1,>= 100 ug ml-1,50,50,25,50,25,29.6,32.69,85.5,88.88,88.8,88.41,98,81.24,98,85.98,97.8,86.77,MIC [21]: 25 µg/mL
Nc1ncc(C(=O)CCNC(=O)c2ccc[nH]2)[nH]1,101,50 µg/mL,50 µg/mL,25,6.25,6.25,12.5,6.25,92,86.17,86.2,86.98,88.4,85.37,98.1,79.94,98,81.58,97.8,81.99,MBIC [22]: 12.5 µg/mL; MIC [21]: 12.5 µg/mL
Nc1ncc(/C=C/CNC(=O)c2cc(Br)c(Br)[nH]2)[nH]1 [OROIDIN],,,,,,,,,,,,,,,,,,,,,IC50 [23]: 166 µM
